Values after ≈ are worked out from the molar mass of the structure shown.
What was measured:
Bacteroides vulgatis = experiment: MIC against anaerobic bacteria, standard agar-dilution assay (Table IX); type: cell-based; settings: 1 strain; Gram-negative anaerobe; 24-hour incubation
Clostridium septicum = experiment: as above; settings: 1 strain; Gram-positive anaerobe; 24-hour incubation
[1] = test system: Peptococcus asaccharolyticus; experiment: as above; type: cell-based; settings: 3 strains; Gram-positive anaerobe; 24-hour incubation
Bacteroides fragilis = experiment: as above; type: cell-based; settings: 3 strains; Gram-negative anaerobe; 24-hour incubation
Clostridium perfringens = experiment: microbe, parasite or virus in culture; type: cell-based; settings: 1 strain; Gram-positive anaerobe; 24-hour incubation
[2] = test system: experimental descending pyelonephritis infection in rats; experiment: Rat Descending Pyelonephritis Test (Table XI); type: in vivo; settings: for protection in experimental descending pyelonephritis infection, compared with vancomycin: rats
Description: In one important aspect of their antibacterial activity, the A82846 antibiotics are useful for treating pyelonephritis. […] This test was carried out using a procedure like that described in U.S. Pat. No. 4,208,403.
^a Doses twice per day subcutaneously for 6 days

Staphylococcus aureus = experiment: protection of mice experimentally infected with test organism (Table X); type: in vivo; settings: mice, subcutaneous, 1 and 4 hours postinfection
Peptococcus prevoti = experiment: MIC against anaerobic bacteria, standard agar-dilution assay (Table IX); type: cell-based; settings: 4 strains; Gram-positive anaerobe; 24-hour incubation
Fusobacterium symbiosum = experiment: as above; type: cell-based; settings: 1 strain; Gram-negative anaerobe; 24-hour incubation
[3] = 2 mg/kg × 12, subcutaneous twice per day for 6 days
[4] = 5 mg/kg × 12, subcutaneous twice per day for 6 days
[5] = 10 mg/kg × 12, subcutaneous twice per day for 6 days

CN[C@H](CC(C)C)C(=O)N[C@H]1C(=O)N[C@@H](CC(N)=O)C(=O)N[C@H]2C(=O)N[C@H]3C(=O)N[C@H](C(=O)N[C@@H](C(=O)O)c4cc(O)cc(O)c4-c4cc3ccc4O)[C@H](O[C@@H]3C[C@@](C)(N)[C@H](O)[C@@H](C)O3)c3ccc(cc3)Oc3cc2cc(c3O[C@H]2O[C@@H](CO)[C@H](O)[C@@H](O)[C@@H]2O[C@H]2C[C@](C)(N)[C@@H](O)[C@H](C)O2)Oc2ccc(cc2Cl)[C@H]1O [A82846A]
MIC (Bacteroides vulgatis): 128 µg/mL (≈ 82.2 µM) | MIC (Clostridium septicum): 0.5 µg/mL (≈ 0.321 µM) | MIC [1]: ≤ 0.25 µg/mL | MIC (Bacteroides fragilis): > 128 µg/mL | MIC (Clostridium perfringens): ≤ 0.25 µg/mL | Percent of Rats Cured [2, 3]: 63% | Percent of Rats with a 4-Log Reduction in Titer [2, 3]: 100% | Percent of Rats Cured [2, 4]: 75% | Percent of Rats with a 4-Log Reduction in Titer [2, 4]: 88% | Percent of Rats Cured [2, 5]: 88% | Percent of Rats with a 4-Log Reduction in Titer [2, 5]: 100% | protection in experimental descending pyelonephritis infection, compared with vancomycin [2]: more effective than vancomycin | ED50 Value (Staphylococcus aureus): 0.19 mg/kg × 2 | MIC (Peptococcus prevoti): 1 to 2 µg/mL | MIC (Fusobacterium symbiosum): 128 µg/mL (≈ 82.2 µM)

CN[C@H](CC(C)C)C(=O)N[C@H]1C(=O)N[C@@H](CC(N)=O)C(=O)N[C@H]2C(=O)N[C@H]3C(=O)N[C@H](C(=O)N[C@H](C(=O)O)c4cc(O)cc(O)c4-c4cc3ccc4O)[C@H](O[C@H]3C[C@](C)(N)[C@@H](O)[C@H](C)O3)c3ccc(c(Cl)c3)Oc3cc2cc(c3O[C@@H]2O[C@H](CO)[C@@H](O)[C@H](O)[C@H]2O[C@H]2C[C@](C)(N)[C@@H](O)[C@H](C)O2)Oc2ccc(cc2Cl)[C@H]1O [A82846B]
MIC (Bacteroides vulgatis): > 128 µg/mL | MIC (Clostridium septicum): 0.5 µg/mL (≈ 0.314 µM) | MIC [1]: 0.06 to 0.5 µg/mL | MIC (Bacteroides fragilis): > 128 µg/mL | MIC (Clostridium perfringens): 0.5 µg/mL (≈ 0.314 µM) | Percent of Rats Cured [2, 3]: 50% | Percent of Rats with a 4-Log Reduction in Titer [2, 3]: 88% | Percent of Rats Cured [2, 4]: 100% | Percent of Rats with a 4-Log Reduction in Titer [2, 4]: 100% | Percent of Rats Cured [2, 5]: 100% | Percent of Rats with a 4-Log Reduction in Titer [2, 5]: 100% | protection in experimental descending pyelonephritis infection, compared with vancomycin [2]: more effective than vancomycin | ED50 Value (Staphylococcus aureus): 0.19 mg/kg × 2 | MIC (Peptococcus prevoti): 1 to 4 µg/mL | MIC (Fusobacterium symbiosum): 128 µg/mL (≈ 80.4 µM)
